≈ marks a conversion by molar mass, not a printed value.
Experiments:
[1] = tested on: IL-8; test: P. acnes-induced IL-8 release in THP-1 cells (ELISA); format: cell-based; details: THP-1 cells, Table 71
Method: (§1) Method: Preparation of Stimulant for Inflammation: P. acnes culture suspension was prepared in PBS and the cell number in the suspension was adjusted to approximately 5×10^8 CFU/ml by measuring the cell density using a Densimat. The bacterial suspension was then heat killed at 80° C. for 30 min and stored at −80° C. until further use.
(§2) Cells were seeded in a 96-well format (2×10^5 THP-1 cells per well) in media containing 10% FBS. The cells were stimulated to induce inflammatory cytokines using 3 McFarland equivalent heat-killed P. acnes. Cells in control wells were treated with PBS. One hour after induction with P. acnes, test agents were added to the induced cells at appropriate concentrations to be tested (compound 91 at 25 μg/ml). The plates were incubated at 37° C. for 24 hours. After 24 h, the plates were centrifuged to pellet the cells and the supernatants were collected. The cell culture supernatants thus obtained were analyzed for levels of cytokines (IL-1α, IL-1β, IL-6 and IL-8) by ELISA using R&D Systems kits for individual cytokines following the manufacturer's instructions.
as §1, with “Preparation” for “Method: Preparation”, “stimulant” for “Stimulant”, “inflammation:” for “Inflammation:”
(§3) Cells were seeded in a 96-well format (2×10^5 THP-1 cells per well) in media containing 10% FBS. The cells were stimulated to induce inflammatory cytokines using 3 McFarland equivalent heat-killed P. acnes. Cells in control wells were treated with PBS. One hour after induction with P. acnes, test agents were added to the induced cells at appropriate concentrations (Besifloxacin at 10 and 30 μg/ml; Adapalene at 0.04 and 0.4 μg/ml). The plates were incubated at 37° C. for 24 hours. After 24 h, the plates were centrifuged to pellet the cells and the supernatants were collected. The cell culture supernatants thus obtained were analyzed for cytokine levels (IL-6 and IL-8) by ELISA using R&D Systems kits for individual cytokines following the manufacturer's instructions.

[2] = tested on: IL-6; test: P. acnes-induced IL-6 release in THP-1 cells (ELISA); format: cell-based; details: for Expression of Cytokines IL-6 (pg/ml) Mean: THP-1 cells, Table 71; for Effect on P. acnes-induced IL-6 levels (in words): Example 61, besifloxacin 10, 30 μg/ml, adapalene 0.04, 0.4 μg/ml
Method: as §1, §2
as §1, with “Preparation” for “Method: Preparation”, “stimulant” for “Stimulant”, “inflammation:” for “Inflammation:”
as §3

[3] = tested on: P. acnes MTCC 1951; format: cell-based, Propionibacterium acnes
Method: 3 to 4 Petri plates containing 48 h P. acnes culture was suspended in sterile Phosphate buffer saline, PBS (pH 7.2) and turbidity was adjusted to optical density of 1 at 600 nm (10^9 cells/ml). 50 ml of this culture suspension was centrifuged at 4000 rpm for 40 min. The supernatant was discarded and pellet resuspended in 250 μl of sterile PBS. 50 μl of these cell suspensions (10^10 cells) was spread over the plates containing various concentrations of antibiotics (around MIC range). Plates were incubated at 37° C. for 48 h and the lowest concentration of the drug that allowed no growth was taken as its MPC.

[4] = tested on: P. acnes MTCC 1951; test: MIC by micro broth dilution (Alamar blue), clindamycin-susceptible P. acnes; format: cell-based, Propionibacterium acnes; details: Cutibacterium acnes, MTCC1951; Table 7; against P. acnes; read-out: MIC
Method: The plates were incubated at 37° C. for 48 h under anaerobic condition for P. acnes and 37° C. for 24 h for S. aureus The plates were read under Bio-Rad plate reader at 595 nm for optical density to generate the dose-response curves. The MIC of the test compound was recorded by addition of Alamar blue dye.
P. acnes (MTCC 3297, MTCC 1951& CCARM 9010) are cultured in Brain Heart Infusion (BHI) Broth at 37° C. for 48-72 h under anaerobic condition. The test compounds/formulations are initially diluted with suitable solvent and further diluted with BHI broth to get the required concentrations. Samples (100 μl) of different concentrations (prepared by serial dilution) are added to 96-well plate. To the wells, 100 μl of P. acnes BHI broth culture is added [culture turbidity adjusted against 0.5 McFarland standard (approx 1.5×10^8), and further diluted 100-fold with sterile BHI broth]. In addition Growth Control and Sterility Control are created using 100 μl each of P. acnes BHI broth culture and plain BHI broth, respectively.
Plates are incubated at 37° C. for 48-72 hrs under anaerobic condition. The plate is read under Bio-Rad plate reader @ 595 nm for optical density to generate the dose-response curves. The MIC of the test compound is recorded by addition of Alamar blue dye.
BHI broth and BHI agar media were prepared as per the manufacturer's instruction and autoclaved at 121° C. for 15 minutes. […] For MIC determination testing, gels are dissolved in the solvent and further diluted with BHI broth. Then, 96 wells plate are filled with 100 μl of BHI broth containing drug with different concentration to get the final concentrations of 0.06, 0.13, 0.25, 0.5, 1 and 2 μg/ml in different lanes (lane 1 to lane 6). Remaining lanes of the 96 well plate are used as growth control and sterility control. Finally, P. acnes culture suspension (approx 1.5×10^6) is added in all the wells except sterility control wells and plate is incubated at 37° C. for 48-72 h under anaerobic condition. At the end of 72 h, Alamar blue solution (20 μl) is added into the wells and incubated at 37° C. for 2 h. Plate is visualized for bacterial inhibitions and MIC values of the tested samples are determined. […]

[5] = tested on: P. acnes clinical isolates; test: MIC of P. acnes isolated from acne patients (clinical isolates);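 also: anaerobic 96-well plate assay at 37 °C over 72 h, with Alamar blue dye as read-out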
Method: P. acnes were cultured in Brain Heart Infusion Agar (BHIA) at 37° C. for 48 hours under anaerobic condition. […] For bacterial inoculum, P. acnes culture turbidity was adjusted to 0.5 McFarland standard (approximately 1.5×10^8) and further diluted (100 times with sterile BHI broth). Diluted P. acnes suspension (100 μl) was added to each well except sterility control wells (column 12 of 96 well plate). Inoculated plates were incubated at 37° C. for 72 hours under anaerobic condition. After incubation, MIC was determined by adding Alamar blue dye.

[6] = Cells + P. acnes + Adapalene 0.04 μg/ml
[7] = Cells + P. acnes + Adapalene 0.4 μg/ml
[8] = Cutibacterium acnes, P. acnes strain V5-2, clinical isolate susceptible to clindamycin and erythromycin
[9] = Cutibacterium acnes, P. acnes strain V5-5, clinical isolate susceptible to clindamycin and erythromycin
[10] = Cutibacterium acnes, P. acnes strain V5-7, clinical isolate susceptible to clindamycin and erythromycin
[11] = Cutibacterium acnes, P. acnes strain V6-5, clinical isolate susceptible to clindamycin and erythromycin
[12] = Cutibacterium acnes, P. acnes strain V6-6, clinical isolate susceptible to clindamycin and erythromycin
[13] = Cutibacterium acnes, P. acnes strain V6-7, clinical isolate susceptible to clindamycin and erythromycin
[14] = Cutibacterium acnes, P. acnes strain V7-3, clinical isolate susceptible to clindamycin and erythromycin
[15] = Cutibacterium acnes, P. acnes strain V7-4, clinical isolate susceptible to clindamycin and erythromycin
[16] = Cutibacterium acnes, P. acnes strain V7-14, clinical isolate susceptible to clindamycin and erythromycin
[17] = Cutibacterium acnes, P. acnes strain V9-6E, clinical isolate susceptible to clindamycin and erythromycin
[18] = Cutibacterium acnes, P. acnes strain V13-3E, clinical isolate susceptible to clindamycin and erythromycin
[19] = Cutibacterium acnes, P. acnes strain V14-2E, clinical isolate susceptible to clindamycin and erythromycin
[20] = Cutibacterium acnes, P. acnes strain V17-3E, clinical isolate susceptible to clindamycin and erythromycin

Structure (SMILES) | Effect on P. acnes-induced IL-6 levels (in words) [2] | Susceptibility of P. acnes isolated from volunteers V3 and V21 (in words) [5] | Susceptibility of clindamycin-nonresponder clinical isolates (in words) [5] | Susceptibility of clinical isolates susceptible to clindamycin and erythromycin (in words) [5] | MIC [5, 8] [µg/mL] | MIC [5, 9] [µg/mL] | MIC [5, 10] [µg/mL] | MIC [5, 11] [µg/mL] | MIC [5, 12] [µg/mL] | MIC [5, 13] [µg/mL] | MIC [5, 14] [µg/mL] | MIC [5, 15] [µg/mL] | MIC [5, 16] [µg/mL] | MIC [5, 17] [µg/mL] | MIC [5, 18] [µg/mL] | MIC [5, 19] [µg/mL] | MIC [5, 20] [µg/mL] | also measured
COc1ccc(-c2ccc3cc(C(=O)O)ccc3c2)cc1C12CC3CC(CC(C3)C1)C2 [Adapalene, adapalene] | impart individual anti-inflammatory effects |  |  |  |  |  |  |  |  |  |  |  |  |  |  |  |  | Expression of Cytokines IL-8 (pg/ml) Mean [1, 6]: 2536.76 pg/mL; Expression of Cytokines IL-8 (pg/ml) Mean [1, 7]: 2579.87 pg/mL; Expression of Cytokines IL-6 (pg/ml) Mean [2, 6]: 308.82 pg/mL; Expression of Cytokines IL-6 (pg/ml) Mean [2, 7]: 162.76 pg/mL
N[C@@H]1CCCCN(c2c(F)cc3c(=O)c(C(=O)O)cn(C4CC4)c3c2Cl)C1 [Besifloxacin] | concentration-dependent inhibitory effect | susceptible | susceptible | susceptible | 0.5 | 0.5 | 0.5 | 0.5 | 0.5 | 0.5 | 0.5 | 0.5 | 0.5 | 0.5 | 0.5 | 0.5 | 0.5 | MPC ([3]; P. acnes, 10^10 cells inoculum): 2 µg/mL; MPC/MIC ([3]; ratio against P. acnes): 4; MIC [4]: 0.5 µg/mL (≈ 1.27 µM); MIC ([5]; Cutibacterium acnes): 0.25 µg/mL; MIC ([5]; P. acnes strain V2-9, clinical isolate susceptible to clindamycin and erythromycin): 0.25 µg/mL; MIC ([5]; P. acnes strain V3-9, clinical isolate susceptible to clindamycin and erythromycin): 0.25 µg/mL; MIC ([5]; P. acnes strain V3-10, clinical isolate susceptible to clindamycin and erythromycin): 0.25 µg/mL; MIC ([5]; P. acnes strain V4-6, clinical isolate susceptible to clindamycin and erythromycin): 0.25 µg/mL; MIC ([5]; P. acnes strain V4-8, clinical isolate susceptible to clindamycin and erythromycin): 0.25 µg/mL; MIC ([5]; P. acnes strain V4-13, clinical isolate susceptible to clindamycin and erythromycin): 0.25 µg/mL; MIC ([5]; P. acnes strain V12-2E, clinical isolate susceptible to clindamycin and erythromycin): 0.25 µg/mL; MIC ([5]; P. acnes strain V15B-1E, clinical isolate susceptible to clindamycin and erythromycin): 0.25 µg/mL; MIC ([5]; P. acnes strain V18-4E, clinical isolate susceptible to clindamycin and erythromycin): 0.25 µg/mL; MIC ([5]; P. acnes strain V19-2E, clinical isolate susceptible to clindamycin and erythromycin): 0.25 µg/mL; MIC ([5]; P. acnes strain V20-5E, clinical isolate susceptible to clindamycin and erythromycin): 0.25 µg/mL
CC[C@H]1OC(=O)[C@H](C)[C@@H](O[C@H]2C[C@@](C)(OC)[C@@H](O)[C@H](C)O2)[C@H](C)[C@@H](O[C@@H]2O[C@H](C)C[C@H](N(C)C)[C@H]2O)[C@](C)(O)C[C@@H](C)C(=O)[C@H](C)[C@@H](O)[C@]1(C)O [Erythromycin, erythromycin] |  | resistance | wide variation in sensitivity | susceptible | < 0.03 | < 0.03 | < 0.03 | < 0.03 | < 0.03 | < 0.03 | < 0.03 | < 0.03 | < 0.03 | < 0.09 | < 0.09 | < 0.09 | 0.78 | MIC ([5]; Cutibacterium acnes, P. acnes strain V2-9, clinical isolate susceptible to clindamycin and erythromycin): < 0.03 µg/mL; MIC ([5]; Cutibacterium acnes, P. acnes strain V2-10, clinical isolate susceptible to clindamycin and erythromycin): < 0.03 µg/mL; MIC ([5]; Cutibacterium acnes, P. acnes strain V3-9, clinical isolate susceptible to clindamycin and erythromycin): < 0.03 µg/mL; MIC ([5]; Cutibacterium acnes, P. acnes strain V3-10, clinical isolate susceptible to clindamycin and erythromycin): < 0.03 µg/mL; MIC ([5]; Cutibacterium acnes, P. acnes strain V4-6, clinical isolate susceptible to clindamycin and erythromycin): < 0.03 µg/mL; MIC ([5]; Cutibacterium acnes, P. acnes strain V4-8, clinical isolate susceptible to clindamycin and erythromycin): < 0.03 µg/mL; MIC ([5]; Cutibacterium acnes, P. acnes strain V4-13, clinical isolate susceptible to clindamycin and erythromycin): < 0.03 µg/mL; MIC ([5]; Cutibacterium acnes, P. acnes strain V12-2E, clinical isolate susceptible to clindamycin and erythromycin): < 0.09 µg/mL; MIC ([5]; Cutibacterium acnes, P. acnes strain V15B-1E, clinical isolate susceptible to clindamycin and erythromycin): 0.19 µg/mL; MIC ([5]; Cutibacterium acnes, P. acnes strain V18-4E, clinical isolate susceptible to clindamycin and erythromycin): 0.19 µg/mL; MIC ([5]; Cutibacterium acnes, P. acnes strain V19-2E, clinical isolate susceptible to clindamycin and erythromycin): < 0.09 µg/mL; MIC ([5]; Cutibacterium acnes, P. acnes strain V20-5E, clinical isolate susceptible to clindamycin and erythromycin): < 0.09 µg/mL

Source: patent publication US10071103B2, “Treatments for resistant acne” (VYOME BIOSCIENCES PVT. LTD., priority 2014, dated 2018)
